Source: patent USRE48461E1, “Modulation of androgen receptor expression” (Ionis Pharmaceuticals, Inc., priority 2012, dated 2021)

Experiments:
Format in all cases: cell-based, human
[1] = test system: VCaP cells; assay: VCaP apoptosis (Caspase-Glo 3/7); settings: complete medium, 72 hours
Description: After a treatment period of 72 hours in complete medium, apoptosis of the cancer cells was measured with Caspase-Glo 3/7 assay (Promega). Results are presented in Tables 117 and 118 as percent apoptosis of the cells, relative to non-treated cells.

[2] = test system: TMPRSS2 mRNA; assay: TMPRSS2 expression in VCaP cells; settings: 48 hrs
Description: Cells were plated at 10,000 cells per well. […] After an incubation period of 48 hrs, RNA levels of full length AR, the V7 variant, PSA and TMPRSS2 were measured.
(§1) After an incubation period of 48 hrs, RNA levels of full length AR, the V7 variant, PSA and TMPRSS2 were measured. The data is presented in Tables 108 expressed as percent expression of gene levels compared to the untreated control.
Cells were plated at 15,000 cells per well and cultured in CSS media for 16 hours. […] After 4 hrs, 1 nM DHT was added. […] After an incubation period of 48 hrs, RNA levels of AR, PSA and TMPRSS2 were measured.

[3] = test system: LNCaP cells; assay: LNCaP cell proliferation (complete or CSS+DHT medium); settings: 5 days; for Proliferation (% untreated control) in LNCaP cells cultured in CSS + DHT medium: CSS + 1 nM DHT medium
Description: After a treatment period of 5 days in complete medium or CSS+1 nM DHT medium, the proliferative capacity of the cancer cells was measured with using CellTiter 96® AQueous One Solution or CellTiter-Glo® solution Cell Proliferation kit (Promega), following the manufacturer's instructions. […] Treatment with ISIS oligonucleotides in CSS+DHT medium reduced the proliferative capacity to a greater extent than treatment with MVD-3100. The proliferative capacity of cells cultured in CSS medium without DHT is 17% of untreated control levels.

[4] = test system: PSA mRNA; assay: PSA expression in LNCaP cells (complete, CSS+DHT medium); settings: for Percent inhibition of PSA expression in LNCaP cells cultured in CSS + DHT medium: CSS + DHT (1 nM) medium, 48 hrs; for Percent inhibition of PSA expression in LNCaP cells cultured in complete medium: 48 hours
Description: Cells were plated at 1,000 cells per well. […] ISIS 549148 was included as a negative control. […] After an incubation period of 48 hours, RNA levels of AR, PSA and TMPRSS2 were measured.
Cells were plated at 2,000 cells per well and cultured in phenol red-free RPMI supplemented with 5% charcoal stripped serum (Gibco) media for 16 hours. […] ISIS 549148 was included as a negative control. […] After an incubation period of 4 hrs, DHT was added to the medium to a final concentration of 1 nM as indicated. RNAs were collected 48 hrs later and levels of AR, PSA and TMPRSS2 were measured. In the absence of DHT, AR expression in LNCaP cells was 95%, PSA expression was 7% and TMPRSS2 expression was 24% compared to the untreated control.

[5] = test system: prostate-specific antigen (PSA) mRNA; assay: PSA mRNA levels in LMR20 cells; settings: for PSA mRNA levels (% baseline value) after treatment with DHT / PSA mRNA levels (% baseline value) after treatment with R1881 / PSA mRNA levels (% baseline value) of cells without AR agonist treatment: LMR20 cells; for PSA mRNA levels (% baseline value) after treatment with DHT: DHT 10 nM 72 hrs; for PSA mRNA levels (% baseline value) after treatment with R1881: R1881 10 nM 72 hrs; for PSA mRNA levels (% baseline value) of cells without AR agonist treatment: no AR agonist
Description: LMR20 cells were plated at 1,500 cells per well in phenol red-free medium with CSS. […] Results are presented in Tables 43-45 as mRNA levels expressed as a percentage of the baseline values. mRNA levels may be lowered or increased after treatment.

[6] = test system: LMR20 cells; assay: Proliferation of MDV3100-resistant LMR20 cells (MTT; with R1881 or DHT); settings: 5 days
Description: LMR20 cells were plated at 1,500 cells per well in phenol red-free medium with charcoal-stripped fetal bovine serum (CSS), to remove any androgens from the medium (Life Technologies). […] The synthetic androgen agonist, R1881, (Takeda, A. N. et al., Mol. Pharmacol. 2007. 71: 473-82) was added on day 1 at 1 nM dose to a set of cells also treated with each of the antisense oligonucleotides. DHT was added on day 1 at a dose of 10 nM to another set of cells also treated with each of the antisense oligonucleotides. […] After a treatment period of 5 days, the proliferative ability of the cancer cells was measured by the standard MTT assay. Results are presented in Table 42 as percent inhibition of proliferation, relative to non-treated cells.

[7] = test system: AR V7 variant mRNA; assay: AR V7 variant RNA in VCaP cells; settings: 48 hrs
Description: Cells were plated at 10,000 cells per well. […] ISIS 549148 was included as a negative control. After an incubation period of 48 hrs, RNA levels of full length AR, the V7 variant, PSA and TMPRSS2 were measured.
as §1, with “A separate set of cells was treated with MDV-3100 at 0.04 μM, 0.2 μM, 1.0 μM, or 5.0 μM. After” for “After”
Cells were plated at 15,000 cells per well and cultured in CSS media for 16 hours. […] ISIS 549148 was included as a negative control. After 4 hrs, 1 nM DHT was added. […] After an incubation period of 48 hrs, RNA levels of AR, PSA and TMPRSS2 were measured. […]

What does the source list for `CNC(=O)c1ccc(N2C(=S)N(c3ccc(C#N)c(C(F)(F)F)c3)C(=O)C2(C)C)cc1F` [MDV3100, 4-(3-(4-cyano-3-(trifluoromethyl)phenyl)-5,5-dimethyl-4-oxo-2-thioxoimidazolidin-1-yl)-2-fluoro-N-methylbenzamide, reference compound]?
Apoptosis (% untreated control) in VCaP cells treated with MDV-3100 ([1]; 5.0 nM): 528%; Apoptosis (% untreated control) in VCaP cells treated with MDV-3100 ([1]; 0.04 μM): 186%; Apoptosis (% untreated control) in VCaP cells treated with MDV-3100 ([1]; 0.2 μM): 210%; Apoptosis (% untreated control) in VCaP cells treated with MDV-3100 ([1]; 1.0 μM): 612%; apoptosis of VCaP cells [1]: increased apoptosis of the cells in a dose dependent compared to the control; Percent of gene expression, TMPRSS2 ([2]; CSS + DHT medium, 0.04 μM): 115%; Percent of gene expression, TMPRSS2 ([2]; CSS + DHT medium, 0.2 μM): 96%; Percent of gene expression, TMPRSS2 ([2]; CSS + DHT medium, 1.0 μM): 70%; Percent of gene expression, TMPRSS2 ([2]; CSS + DHT medium, 5.0 μM): 42%; Percent of gene expression, TMPRSS2 ([2]; complete medium, 0.04 μM): 131%; Percent of gene expression, TMPRSS2 ([2]; complete medium, 0.2 μM): 121%; Percent of gene expression, TMPRSS2 ([2]; complete medium, 5.0 μM): 141%; Proliferation (% untreated control) in LNCaP cells cultured in CSS + DHT medium ([3]; 0.04 μM): 112 % untreated control; Proliferation (% untreated control) in LNCaP cells cultured in CSS + DHT medium ([3]; 0.2 μM): 95 % untreated control; Proliferation (% untreated control) in LNCaP cells cultured in CSS + DHT medium ([3]; 1 μM): 74 % untreated control; Proliferation (% untreated control) in LNCaP cells cultured in CSS + DHT medium ([3]; 5.0 μM): 33 % untreated control; proliferation of LNCaP cells ([3]; complete medium or CSS+1 nM DHT): reduced proliferation of the cells in a dose dependent compared to the control; Proliferation (% untreated control) in LNCaP cells cultured in complete medium ([3]; 0.04 μM): 107 % untreated control; Proliferation (% untreated control) in LNCaP cells cultured in complete medium ([3]; 0.2 μM): 88 % untreated control; Proliferation (% untreated control) in LNCaP cells cultured in complete medium ([3]; 1 μM): 65 % untreated control; Proliferation (% untreated control) in LNCaP cells cultured in complete medium ([3]; 5.0 μM): 45 % untreated control; Percent inhibition of PSA expression in LNCaP cells cultured in CSS + DHT medium ([4]; 0.04 μM): 15%; Percent inhibition of PSA expression in LNCaP cells cultured in CSS + DHT medium ([4]; 0.2 μM): 38%; Percent inhibition of PSA expression in LNCaP cells cultured in CSS + DHT medium ([4]; 1 μM): 81%; Percent inhibition of PSA expression in LNCaP cells cultured in CSS + DHT medium ([4]; 5.0 μM): 82%; Percent inhibition of PSA expression in LNCaP cells cultured in complete medium ([4]; 0.04 μM): 0%; Percent inhibition of PSA expression in LNCaP cells cultured in complete medium ([4]; 0.2 μM): 35%; Percent inhibition of PSA expression in LNCaP cells cultured in complete medium ([4]; 1 μM): 84%; Percent inhibition of PSA expression in LNCaP cells cultured in complete medium ([4]; 5.0 μM): 87%; PSA mRNA levels (% baseline value) after treatment with DHT ([5]; ASO 0.04 μM): 124 % baseline value; PSA mRNA levels (% baseline value) after treatment with DHT ([5]; ASO 0.20 μM): 108 % baseline value; PSA mRNA levels (% baseline value) after treatment with DHT ([5]; ASO 1.0 μM): 95 % baseline value; PSA mRNA levels (% baseline value) after treatment with DHT ([5]; ASO 5.0 μM): 95 % baseline value; PSA mRNA levels (% baseline value) after treatment with R1881 ([5]; ASO 0.04 μM): 84 % baseline value; PSA mRNA levels (% baseline value) after treatment with R1881 ([5]; ASO 0.20 μM): 101 % baseline value; PSA mRNA levels (% baseline value) after treatment with R1881 ([5]; ASO 1.0 μM): 92 % baseline value; PSA mRNA levels (% baseline value) after treatment with R1881 ([5]; ASO 5.0 μM): 87 % baseline value; PSA mRNA levels (% baseline value) of cells without AR agonist treatment ([5]; ASO 0.04 μM): 98 % baseline value; PSA mRNA levels (% baseline value) of cells without AR agonist treatment ([5]; ASO 0.20 μM): 93 % baseline value; PSA mRNA levels (% baseline value) of cells without AR agonist treatment ([5]; ASO 1.0 μM): 90 % baseline value; PSA mRNA levels (% baseline value) of cells without AR agonist treatment ([5]; ASO 5.0 μM): 113 % baseline value; PSA mRNA levels in LMR20 cells ([5]; with or without DHT/R1881): did not reduce either PSA or TMPRSS2 mRNA levels; Percent inhibition of LMR20 cell proliferation ([6]; CSS + DHT, ASO 0.04 μM): 0%; Percent inhibition of LMR20 cell proliferation ([6]; CSS + DHT, ASO 0.20 μM): 1%; Percent inhibition of LMR20 cell proliferation ([6]; CSS + DHT, ASO 1.0 μM): 13%; Percent inhibition of LMR20 cell proliferation ([6]; CSS + DHT, ASO 5.0 μM): 41%; Percent inhibition of LMR20 cell proliferation ([6]; CSS + R1881, ASO 0.04 μM): 0%; Percent inhibition of LMR20 cell proliferation ([6]; CSS + R1881, ASO 0.20 μM): 5%; Percent inhibition of LMR20 cell proliferation ([6]; CSS + R1881, ASO 1.0 μM): 31%; Percent inhibition of LMR20 cell proliferation ([6]; CSS + R1881, ASO 5.0 μM): 67%; Percent inhibition of LMR20 cell proliferation ([6]; CSS, ASO 0.04 μM): 0%; Percent inhibition of LMR20 cell proliferation ([6]; CSS, ASO 0.20 μM): 5%; Percent inhibition of LMR20 cell proliferation ([6]; CSS, ASO 1.0 μM): 0%; Percent inhibition of LMR20 cell proliferation ([6]; CSS, ASO 5.0 μM): 11%; Percent of gene expression, AR V7 variant ([7]; CSS + DHT medium, 0.04 μM): 82%; Percent of gene expression, AR V7 variant ([7]; CSS + DHT medium, 0.2 μM): 65%; Percent of gene expression, AR V7 variant ([7]; CSS + DHT medium, 1.0 μM): 101%; Percent of gene expression, AR V7 variant ([7]; CSS + DHT medium, 5.0 μM): 181%; Percent of gene expression, AR V7 variant ([7]; complete medium, 0.04 μM): 172%; Percent of gene expression, AR V7 variant ([7]; complete medium, 0.2 μM): 179%; Percent of gene expression, AR V7 variant ([7]; complete medium, 1.0 μM): 244%; Percent of gene expression, AR V7 variant ([7]; complete medium, 5.0 μM): 237%
